Measurements taken from patent publication US20210170033A1, “NOVEL CONJUGATES OF A PHARMACEUTICAL AGENT AND A MOIETY CAPABLE OF BINDING TO A GLUCOSE SENSING PROTEIN” (SANOFI, priority 2017, published 2021).
pIC50: −log10 of the molar value. Where two headings read alike, the source gives them in different places.

Test system: A2780 cells
Experiment: Deoxy-glucose uptake assay in A2780 cells (14C 2-deoxy-D-glucose transport)
Format: cell-based
Conditions: Homo sapiens
Experimental: 1. Deoxy-Glucose Uptake Assay in A2780 Cells:
For measurement of ^14C 2-deoxy-D-glucose transport into A2780 cells, cells were seeded in 96-well plates (Cytostar-T Plates Perkin Elmer, 70,000 cells/180 μl/well) in medium complete (RPMI1640+Glutamax (Life technologies #61870)) and grown for 48 hours. After 48 h, cells were washed once with 180 μL KRB (Krebs Ringer Bicarbonate) buffer, and stimulated in a dose dependent manner by adding 10 μL of test compound dilution 0-1.1 mM (11 times higher concentration than final) or 10 μL of 1.1 mM Cytochalasin B solution as negative control, to 90 μL KRB buffer and incubated for 20 minutes. After compound stimulation, the transport of ^14C 2-deoxy-D-glucose was started by adding of 50 μL 2-^14C[U] 2-deoxy-D-glucose solution (109.1 μM 2-deoxy-D-glucose cold and 33 μM 2-^14C[U] 2-deoxy-D-glucose 0.1 μCi/well) for 20 minutes. Transport was stopped by adding 50 μL/well 96 μM Cytochalasin B solution. Plates were measured in a 96-well Wallac Microbeta device. The cpm (counts per minute) values were used to determine the % inhibition values for the test compounds within each experiment. In a first step, the mean background value generated by Cytochalasin B (a potent glucose transporter inhibitor) treated cells, was subtracted from the mean values of the treated cells. All mean values were obtained from triplicates. For %-Inhibition results, the mean value of the untreated cells (just KRB) was set as 100%. All other mean values were calculated to this relation. IC50 were obtained by regression analysis of dose response curve with 7 or 14 concentrations, respectively, for each compound.

[1] = 20 min, inhibition of 14C 2-deoxy-D-glucose transport into A2780 cells, 20 min compound incubation, read-out: IC50

SMILES	pIC50 [1]	pIC50 (A2780, 20 min)
COC(=O)COc1ccc(COc2cc(OC)c(C(=O)N[C@H]3[C@@H](OC)O[C@H](CO)[C@@H](O)[C@@H]3O)cc2Cl)cc1 (relative stereo) [Example 386]	5.28	–
COc1cc(OCc2ccc(/C=C/C(=O)NCCCCCC(=O)OC(C)(C)C)cc2)c(Cl)cc1C(=O)N[C@H]1[C@@H](OC)O[C@H](CO)[C@@H](O)[C@@H]1O (relative stereo) [Example 392]	5.74	–
COc1cc(OCc2nc3ccccc3n2CCCCCCCC(=O)O)c(Cl)cc1C(=O)N[C@H]1[C@@H](OC)O[C@H](CO)[C@@H](O)[C@@H]1O (relative stereo) [Example 482]	5.09	–
C=CCO[C@@H]1O[C@H](COC(=O)c2ccc(OCc3ccccc3)c(OC)c2)[C@@H](O)[C@H](O)[C@H]1O [Example 11]	4.17	–
CO[C@@H]1O[C@H](COC(=O)c2cc(C)c(OCc3ccccc3)c(C)c2)[C@@H](O)[C@H](O)[C@H]1O [Example 19]	4.20	–
COc1cc(C(=O)OC[C@H]2O[C@@H](OCC[Si](C)(C)C)[C@H](O)[C@@H](O)[C@@H]2O)cc(Cl)c1OCCc1ccccc1 [Example 28]	–	4.08
CO[C@@H]1O[C@H](COC(=O)c2cc(OCc3ccccc3)ccc2C)[C@@H](O)[C@H](O)[C@H]1O [Example 34]	4.39	–
COc1cc(C(=O)OC[C@H]2O[C@@H](OCC[Si](C)(C)C)[C@H](O)[C@@H](O)[C@@H]2O)cc(Cl)c1OC(=O)c1ccccc1 [Example 36]	–	4.32
COc1cc(C(=O)OC[C@H]2OC(O)[C@H](O)[C@@H](O)[C@@H]2O)cc(Cl)c1OCCc1ccccc1 (stereo partly shown) [Example 56]	4.36	–
Cc1ccc(OCc2ccccc2)cc1C(=O)OC[C@H]1OC(O)[C@H](O)[C@@H](O)[C@@H]1O (stereo partly shown) [Example 61]	4.53	–
CO[C@H]1O[C@H](CO)[C@@H](O)[C@H](O)[C@H]1OC(=O)c1cc(Cl)cc(OCc2ccccc2)c1 [Example 74]	4.28	–
C#CCCC(=O)Nc1cccc(COc2c(Cl)cc(C(=O)O[C@@H]3C(O)[C@H](O)[C@@H](CO)O[C@@H]3OC)cc2OC)c1 (stereo partly shown) [Example 78]	4.70	–
COc1cccc(COc2c(Cl)cc(C(=O)O[C@H]3[C@@H](OC)O[C@H](CO)[C@@H](O)[C@@H]3O)cc2OC)c1 [Example 88]	4.65	–
Cc1ccc(OCc2ccccc2)cc1C(=O)OC[C@H]1OC(O)[C@H](O)[C@@H](O)[C@H]1O (stereo partly shown) [Example 102]	4.86	–
CO[C@H]1O[C@H](CO)[C@@H](O)[C@H](O)[C@H]1OC(=O)c1cc(Cl)c(OCc2nccn2Cc2ccccc2)c(Cl)c1 [Example 117]	5.00	–
COc1ncc(COc2c(Cl)c(C)c(C(=O)O[C@H]3[C@@H](OC)O[C@H](CO)[C@@H](O)[C@@H]3O)c(OC)c2Cl)cc1Cl [Example 126]	5.25	–
COc1cc(C(=O)O[C@H]2[C@@H](O)[C@@H](CO)O[C@H](OC)[C@@H]2O)cc(Cl)c1OCc1nc2ccccc2n1C(C)C [Example 127]	4.49	–
COc1cc(OCc2ccccc2)cc(C(=O)OC[C@H]2O[C@@H](OC)[C@H](O)[C@@H](O)[C@@H]2O)c1 [Example 136]	4.12	–
CO[C@@H]1O[C@H](COC(=O)c2cc(OCc3ccccc3)c3cc[nH]c3c2)[C@@H](O)[C@H](O)[C@H]1O [Example 145]	4.34	–
COc1cc(C(=O)OC[C@H]2O[C@@H](OC)[C@H](O)[C@@H](O)[C@@H]2O)cc(Cl)c1OCc1nc2ccccc2n1C(C)C [Example 151]	4.73	–
COc1cc(C(=O)N[C@H]2[C@@H](OC)O[C@H](CO)[C@@H](O)[C@@H]2O)cc(Cl)c1OCc1ccccc1 [Example 179]	4.42	–
COc1c(Cl)c(OCc2cccc(CNC(=O)OC(C)(C)C)c2)c(Cl)c(C)c1C(=O)N[C@H]1[C@@H](OC)O[C@H](CO)[C@@H](O)[C@@H]1O [Example 181]	4.76	–

SMILES	pIC50 [1]	pIC50 (A2780, 20 min)
C#CCCCn1c(COc2c(Cl)cc(C(=O)O[C@H]3[C@@H](OC)O[C@H](CO)[C@@H](O)[C@@H]3O)cc2OC)nc2ccccc21 [Example 186]	5.22	–
COc1ccc(COc2c(Cl)cc(C(=O)O[C@H]3[C@@H](OC)O[C@H](CO)[C@@H](O)[C@@H]3O)cc2OC)cc1 [Example 190]	4.99	–
C#CCCC(=O)Nc1cccc(COc2c(Cl)cc(C(=O)O[C@@H]3[C@@H](O)[C@@H](OC)O[C@H](CO)[C@H]3O)c(C)c2Cl)c1 [Example 205]	4.56	–
CO[C@H]1O[C@H](CO)[C@@H](O)[C@H](O)[C@H]1NC(=O)c1cc(Cl)c(OCc2cccc(C(=O)OC(C)(C)C)c2)c(Cl)c1C [Example 209]	5.60	–
COc1ncc(COc2c(Cl)cc(C(=O)N[C@H]3[C@@H](OC)O[C@H](CO)[C@@H](O)[C@@H]3O)c(C)c2Cl)cc1Cl [Example 210]	6.22	–
CCn1c(COc2c(Cl)cc(C(=O)O[C@H]3[C@@H](OC)O[C@H](CO)[C@@H](O)[C@@H]3O)cc2OC)nc2ccc(Br)cc21 [Example 213]	5.82	–
COc1ncc(COc2c(Cl)cc(C(=O)O[C@H]3[C@@H](OC)O[C@H](CO)[C@@H](O)[C@@H]3O)c(C)c2Cl)cc1Cl [Example 215]	5.96	–
COc1cc(C(=O)O[C@H]2[C@@H](OC)O[C@H](CO)[C@@H](O)[C@@H]2O)cc(Cl)c1OCc1cnc(OC)c(Cl)c1 [Example 216]	5.66	–
COc1cc(OCc2ccc(/C=C/C(=O)NCCCC(=O)OC(C)(C)C)cc2)c(Cl)cc1C(=O)N[C@H]1[C@@H](OC)O[C@H](CO)[C@@H](O)[C@@H]1O [Example 236]	6.40	–
COc1cc(C(=O)N[C@H]2[C@@H](OC)O[C@H](CO)[C@@H](O)[C@@H]2O)cc(Cl)c1OCc1nc2ccccc2n1C(C)C [Example 238]	4.66	–
CO[C@H]1O[C@H](CO)[C@@H](O)[C@H](O)[C@H]1NC(=O)c1cc(Cl)c(OCc2ccc3c(cnn3C)c2)c(Cl)c1C [Example 240]	5.22	–
COc1cccc(CCOc2c(Cl)cc(C(=O)O[C@H]3[C@@H](OC)O[C@H](CO)[C@@H](O)[C@@H]3O)c(C)c2Cl)c1 [Example 241]	4.61	–
CO[C@H]1O[C@H](CO)[C@@H](O)[C@H](O)[C@H]1OC(=O)c1cc(Cl)c(OCCc2cccc(Cl)c2)c(Cl)c1C [Example 242]	4.70	–
CO[C@H]1O[C@H](CO)[C@@H](O)[C@H](O)[C@H]1OC(=O)c1cc(Cl)c(OCCc2ccc(C)cc2)c(Cl)c1C [Example 243]	4.56	–
CO[C@H]1O[C@H](CO)[C@@H](O)[C@H](O)[C@H]1OC(=O)c1cc(Cl)c(OCCc2ccc(Cl)cc2)c(Cl)c1C [Example 244]	4.65	–
COC(=O)c1ccc(COc2c(Cl)cc(C(=O)N[C@H]3[C@@H](OC)O[C@H](CO)[C@@H](O)[C@@H]3O)c(C)c2Cl)cn1 [Example 245]	4.20	–
COC(=O)c1cnc(COc2c(Cl)cc(C(=O)N[C@H]3[C@@H](OC)O[C@H](CO)[C@@H](O)[C@@H]3O)c(C)c2Cl)cn1 [Example 246]	4.29	–
COC(=O)c1ccc(COc2c(Cl)cc(C(=O)O[C@H]3[C@@H](OC)O[C@H](CO)[C@@H](O)[C@@H]3O)c(C)c2Cl)cn1 [Example 252]	5.19	–
COC(=O)c1cnc(COc2c(Cl)cc(C(=O)O[C@H]3[C@@H](OC)O[C@H](CO)[C@@H](O)[C@@H]3O)c(C)c2Cl)cn1 [Example 253]	5.15	–
CO[C@H]1O[C@H](CO)[C@@H](O)[C@H](O)[C@H]1OC(=O)c1cc(Cl)c(OCc2cn3c(C)cccc3n2)c(Cl)c1C [Example 255]	6.52	–
CO[C@H]1O[C@H](CO)[C@@H](O)[C@H](O)[C@H]1NC(=O)c1cc(Cl)c(OCc2cn3c(C)cccc3n2)c(Cl)c1C [Example 256]	5.96	–
